Experiments:
[1] = system: rat C6 glioma cells; test: GDNF production promoting action in rat C6 glioma cells (ELISA of culture supernatant); format: cell-based; conditions: Rattus norvegicus, C6 glioma, 48 h; concentration which causes 50% increase of GDNF relative to the control group; cultured 2 days with test compound; GDNF in culture supernatant by ELISA
Description: Using rat C6 glioma cells, the GDNF production promoting action of the compound of the present invention was evaluated.
Rat C6 glioma cells (ATCC) were grown in Dulbecco's Modified Eagle's Medium (DMEM) containing 10% FBS (Fetal Bovine Serum) in a collagen type 1 coated 75 cm^2 culture flask (SUMITOMO BAKELITE Co., Ltd.) until near confluent, detached by trypsin treatment and washed once with DMEM containing 10% FBS.
The cells after washing were diluted with 10% FBS-containing DMEM to a concentration of 5×10^4/mL and seeded at 0.3 mL/well in each well of collagen type 1 coated 48 well culture dish (SUMITOMO BAKELITE Co., Ltd.). After 3 days, the culture in the culture dish was placed in a 1% BSA (bovine serum albumin, Sigma)-containing DMEM medium supplemented with various concentrations of test compound, and further cultured for 2 days. The culture supernatant was recovered and preserved at −80° C. until measurement of GDNF.
The content of GDNF in the culture supernatant was measured by the following ELISA Method.
Anti-GDNF antibody (MAB212, R&D) was diluted with TBS (Tris buffered physiological saline: 25 mmol/L Tris-HCl (pH 8.0), 150 mmol/L NaCl) to 2 μg/mL and dispensed at 0.1 mL/well to each well of a 96-well immunoplate. The 96-well immunoplate was incubated overnight at 4° C. and washed once with TBS containing Tween 20 at 0.05% (hereinafter to be abbreviated as TBST). A blocking solution (TBS containing 1% BSA and 5% sucrose) was added at 0.2 mL/well to each well after washing, and the plate was incubated at room temperature for 1 hr., after which each well was washed twice with TBST. The culture supernatant (0.1 mL) of the aforementioned C6 cells was added to each well after washing and the plate was incubated at room temperature for 3 hrs., after which the wells were washed 5 times with TBST. The 500-fold diluted anti-GDNF antibody (G2791, Promega) was added by 0.1 mL to each well after washing, incubated at room temperature for 2 hrs. and washed 5 times with TBST. A 5000-fold diluted horseradish peroxidase-labeled anti-chicken IgY antibody (G1351, Promega) was added at 0.1 mL/well to each well after washing, incubated at room temperature for 2 hrs. and washed 5 times with TBST. A substrate solution (TMB substrate solution, BIO-RAD) was added at 0.1 mL/well to each well after washing and allowed to develop color at room temperature for 8 min. To stop the reaction, 0.1 mL of 1 mol/L phosphoric acid was added to each well in coloring developing reaction. The absorbance of the reaction solution at 450 nm wavelength was measured.
In the same manner as above except the test compound was not used, the ELISA Method was performed and this was used as a control group.
Using various concentrations of GDNF (Promega), ELISA Method was performed in the same manner as above and standard line was prepared.
From the aforementioned absorbance and standard line, GDNF content in a sample was calculated and the concentration (EC50), which causes 50% increase of GDNF relative to the control group was calculated from the regression line.

[2] = system: PC12 cells; test: neuroprotective action (neurite network formation) in PC12 cells; format: cell-based; conditions: test compound 0.3-3.0 μmol/L, two days, DMEM with 0.5% FCS and 2 ng/mL NGF; observed under a microscope
Description: Using PC12 cells, the neuroprotective action of the compound of the present invention was evaluated.
PC12 cells were precultured for one day in a DMEM (Dulbecco's Modified Eagle's Medium) culture solution containing 10% FCS (Fetal Calf Serum) in an incubator at 37° C., 5% CO2, and seeded at 5×10^3/well in a 24 well plate (Falcon) in the same medium. After the cells adhered to the bottom surface, the culture was changed to a DMEM culture solution containing 0.5% FCS and 2 ng/mL of NGF (Wako Pure Chemical Industries, Ltd.). After culturing overnight, the test compound was added at a concentration of 0.3-3.0 μmol/L and the cells were cultured for two more days. Gultalaldehyde was added to the cultured to a final concentration of 2% and the cells were fixed for 1 hr., after which stained with a Diff-Quick (International Reagents Corporation). The cells were washed, dried with air and observed under a microscope.

Row | SMILES | EC50 [1] | formation of neurite network [2] | melting point
1 | CCOP(=O)(Cc1ccc(NC(=O)/C=C/c2cnn(C)c2-c2ccc(F)cc2)cc1)OCC [Example 2, (2E)-N-[4-(Diethylphosphonomethyl)phenyl]-3-[5-(4-fluorophenyl)-1-methyl-1H-pyrazol-4-yl]acrylamide] | 400 nM | promoted formation of neurite network | –
2 | Cn1ncc(/C=C/C(=O)Nc2ccc(C(O)c3ccccn3)cc2)c1-c1ccc(F)cc1 (stereo not shown) [Example 49, (2E)-3-[5-(4-Fluorophenyl)-1-methyl-1H-pyrazol-4-yl]-N-{4-[hydroxy(2-pyridinyl)methyl]phenyl}acrylamide] | 1600 nM | promoted formation of neurite network | –
3 | Cn1ncc(/C=C/C(=O)Nc2ccc(CC3SC(=O)NC3=O)cc2)c1-c1ccc(F)cc1 (stereo not shown) [Example 60, (2E)-N-{4-[(2,4-Dioxo-1,3-thiazolidin-5-yl)methyl]phenyl}-3-[5-(4-fluorophenyl)-1-methyl-1H-pyrazol-4-yl]acrylamide] | 800 nM | promoted formation of neurite network | 149 to 150 °C
4 | CN1C(=O)SC(Cc2ccc(NC(=O)/C=C/c3cnn(C)c3-c3ccc(F)cc3)cc2)C1=O (stereo not shown) [Example 110, (2E)-3-[5-(4-Fluorophenyl)-1-methyl-1H-pyrazol-4-yl]-N-{4-[(3-methyl-2,4-dioxo-1,3-thiazolidin-5-yl)methyl]phenyl}acrylamide] | 310 nM | promoted formation of neurite network | 228 to 229 °C
5 | CCOP(=O)(Cc1ccc(NC(=O)/C=C/c2cnn(C)c2-c2cccs2)cc1)OCC [Example 149, Diethyl [4-({(2E)-3-[1-methyl-5-(2-thienyl)-1H-pyrazol-4-yl]prop-2-enoyl}amino)benzyl]phosphonate] | 510 nM | promoted formation of neurite network | 262 to 263 °C
6 | Cn1ncc(/C=C/C(=O)Nc2ccc(Cn3ccnc3)cc2)c1-c1ccc(F)cc1 [Example 159, (2E)-3-[5-(4-fluorophenyl)-1-methyl-1H-pyrazol-4-yl]-N-[4-(1H-imidazol-1-ylmethyl)phenyl]acrylamide] | 120 nM | promoted formation of neurite network | 213 to 214 °C
7 | Cn1ncc(/C=C/C(=O)Nc2ccc(Cn3cccn3)cc2)c1-c1ccc(F)cc1 [Example 161, (2E)-3-[5-(4-Fluorophenyl)-1-methyl-1H-pyrazol-4-yl]-N-[4-(1H-pyrazol-1-ylmethyl)phenyl]acrylamide] | 130 nM | promoted formation of neurite network | 189 to 191 °C
8 | Cn1ncc(/C=C/C(=O)Nc2ccc(Cn3cnc4ccccc43)cc2)c1-c1ccc(F)cc1 [Example 185, (2E)-N-[4-(1H-Benzimidazol-1-ylmethyl)phenyl]-3-[5-(4-fluorophenyl)-1-methyl-1H-pyrazol-4-yl]acrylamide] | 300 nM | promoted formation of neurite network | 243 to 244 °C
9 | Cn1ncc(/C=C/C(=O)Nc2ccc(CN3CCOCC3)cc2)c1-c1ccc(F)cc1 [Example 192, (2E)-3-[5-(4-Fluorophenyl)-1-methyl-1H-pyrazol-4-yl]-N-[4-(4-morpholinylmethyl)phenyl]acrylamide] | 540 nM | promoted formation of neurite network | 202 to 203 °C
10 | Cn1ncc(/C=C/C(=O)Nc2ccc(CS(C)(=O)=O)cc2)c1-c1ccc(F)cc1 [Example 222, (2E)-3-[5-(4-fluorophenyl)-1-methyl-1H-pyrazol-4-yl]-N-(4-[(methylsulfonyl)methyl]phenyl)acrylamide] | 120 nM | promoted formation of neurite network | 251 to 252 °C
11 | CCS(=O)(=O)Cc1ccc(NC(=O)/C=C/c2cnn(C)c2-c2ccc(F)cc2)cc1 [Example 223, (2E)-N-{4-[(Ethylsulfonyl)methyl]phenyl}-3-[5-(4-fluorophenyl)-1-methyl-1H-pyrazol-4-yl]acrylamide] | 36 nM | promoted formation of neurite network | 257 to 258 °C

Source: US7423159B2, “Agent for preventing or treating neuropathy” (Takeda Pharmaceutical Company Limited, priority 2002, dated 2008)
